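Interpolation was linear, between the two tested concentrations surrounding the appropriate level; five concentrations were tested over 48 hours in 96-well plates. GI50 is the concentration that inhibits growth by half. TGI: total growth inhibition.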
What was measured:
Test in all cases: growth of human tumour cells (NCI), 48 h
[1] = test system: SK-OV-3 ovarian
[2] = test system: EKVX NSCLC
[3] = test system: CAKI-1 renal
[4] = test system: UACC-257 melanoma
[5] = test system: NCI-H460 lung
[6] = test system: SNB-19 CNS
[7] = test system: MDA-MB-231 breast
[8] = test system: HOP-92 NSCLC
[9] = test system: RXF 393 renal
[10] = test system: COLO 205 colon

With COc1ccc(-c2c(C#N)cnc(N)c2-c2nc3cc(C)c(C)cc3[nH]2)cc1 the GI50 [1] was 4.84 µM, the TGI [1] was 18.4 µM and the GI50 [2] was 15.8 µM. The TGI [2] was over 100 µM, the GI50 [3] was 14.6 µM and the TGI [3] was over 100 µM. The GI50 [4] was 52 µM, the TGI [4] was over 100 µM and the GI50 [5] was 18.1 µM. For the same compound, the TGI [5] was over 100 µM, the GI50 [6] was 7.06 µM and the TGI [6] was 57.1 µM. It also gave a GI50 [7] of 8.28 µM, a TGI [7] of over 100 µM and a GI50 [8] of 2.65 µM. For the same compound, the TGI [8] was 16.3 µM, the GI50 [9] was 5.68 µM and the TGI [9] was 20.4 µM. The GI50 [10] was 7.78 µM and the TGI [10] was 63.7 µM.
With COc1ccc2oc3c(ccc[n+]3C)c(=O)c2c1 the TGI [1] was over 100 µM, the TGI [2] was over 100 µM and the TGI [3] was over 100 µM. The TGI [5] was over 100 µM, the TGI [6] was over 100 µM and the TGI [7] was over 100 µM. For the same compound, the TGI [8] was over 100 µM, the TGI [9] was over 100 µM and the TGI [10] was over 100 µM.
CC(=O)Nc1nc(C)c(-c2cc3c(c(S(C)(=O)=O)c2)C(=O)N([C@@H](C)C2CC2)C3)s1 showed a GI50 [1] of 22.2 µM, a TGI [1] of 56.4 µM and a GI50 [2] of 18.3 µM. For the same compound, the TGI [2] was 79.9 µM, the GI50 [3] was 17.6 µM and the TGI [3] was 55.4 µM. The GI50 [4] was 37.7 µM, the TGI [4] was over 100 µM and the GI50 [5] was 37.1 µM. For the same compound, the TGI [5] was over 100 µM, the GI50 [6] was 65.5 µM and the TGI [6] was over 100 µM. It also gave a GI50 [7] of 18.6 µM, a TGI [7] of 69.6 µM and a GI50 [8] of 15.9 µM. The TGI [8] was 64.1 µM, the GI50 [9] was 14.2 µM and the TGI [9] was 51.6 µM. For the same compound, the GI50 [10] was 34.9 µM and the TGI [10] was over 100 µM.
CC1CC(c2ccc([N+](=O)[O-])cc2)=Nc2ccccc2S1=O (stereo unspecified) was tested, and the TGI [1] was 64.9 µM, the TGI [2] was 60.9 µM and the TGI [3] was 61.2 µM. For the same compound, the TGI [4] was 42.1 µM, the TGI [5] was 34.3 µM and the TGI [6] was 38.5 µM. For the same compound, the TGI [8] was over 100 µM, the TGI [9] was 23.6 µM and the TGI [10] was 33.5 µM.
For O=c1ccc2nc3ccc(O)cc3oc-2c1, the TGI [1] was over 100 µM, the TGI [2] was over 100 µM and the TGI [3] was over 100 µM. It also gave a TGI [4] of 26.4 µM, a TGI [5] of over 100 µM and a TGI [6] of over 100 µM. For the same compound, the TGI [7] was over 100 µM, the TGI [8] was over 100 µM and the TGI [9] was over 100 µM. For the same compound, the TGI [10] was 24.9 µM.
Cc1ccc(C(=O)C(C)N)cc1C (stereo unspecified) was tested, and the TGI [1] was over 100 µM, the TGI [2] was over 100 µM and the TGI [3] was over 100 µM. The TGI [4] was over 100 µM, the TGI [5] was over 100 µM and the TGI [6] was over 100 µM. It also gave a TGI [9] of over 100 µM and a TGI [10] of over 100 µM.
For CC(=O)O[C@@H]1CN(S(=O)(=O)c2ccc(C)cc2)C[C@@H]1C1CCCCC1, the TGI [1] was over 100 µM, the TGI [2] was 58.6 µM and the TGI [3] was 45.6 µM. It also gave a TGI [4] of 35.7 µM, a TGI [5] of over 100 µM and a TGI [6] of over 100 µM. The TGI [8] was 33.8 µM and the TGI [10] was 46.5 µM.
With NC(=O)N/N=C/c1ccccc1O the TGI [1] was over 100 µM, the TGI [2] was over 100 µM and the TGI [3] was over 100 µM. The TGI [4] was over 100 µM, the TGI [5] was over 100 µM and the TGI [6] was over 100 µM. It also gave a TGI [7] of over 100 µM, a TGI [8] of over 100 µM and a TGI [9] of over 100 µM. The TGI [10] was over 100 µM.
COc1cc2c(cc1O)N=C[C@@H]1CCC(O)N1C2=O (mixture of isomers) was tested, and the TGI [1] was 84 µM, the TGI [2] was 5.99 µM and the TGI [3] was 11.7 µM. It also gave a TGI [4] of 7.65 µM, a TGI [5] of 11.4 µM and a TGI [6] of 147 µM. It also gave a TGI [8] of 2.46 µM, a TGI [9] of 0.638 µM and a TGI [10] of 1.93 µM.
Work on CC(CNc1nc(Nc2ccc(Cl)c(Cl)c2)nc(C(Cl)(Cl)Cl)n1)N(C)C (stereo unspecified) yielded a GI50 [1] of 1.6 µM, a TGI [1] of 3.18 µM and a GI50 [2] of 1.99 µM. It also gave a TGI [2] of 4.62 µM, a GI50 [3] of 1.7 µM and a TGI [3] of 3.59 µM. It also gave a GI50 [4] of 1.75 µM, a TGI [4] of 3.32 µM and a GI50 [5] of 1.66 µM. For the same compound, the TGI [5] was 3.11 µM, the GI50 [6] was 1.71 µM and the TGI [6] was 3.18 µM. For the same compound, the GI50 [7] was 0.307 µM, the TGI [7] was 1.42 µM and the GI50 [8] was 1.35 µM. For the same compound, the TGI [8] was 4.16 µM, the GI50 [9] was 1.52 µM and the TGI [9] was 2.88 µM. It also gave a GI50 [10] of 1.83 µM and a TGI [10] of 3.39 µM.
With COc1ccc(/C=C/C(=O)/C=C(/C=C/c2ccc(OC)c(OC)c2OC)OB(F)F)c(OC)c1OC the GI50 [1] was 3.77 µM, the TGI [1] was over 100 µM and the GI50 [2] was 2.96 µM. The TGI [2] was over 100 µM, the GI50 [4] was 9.33 µM and the TGI [4] was over 100 µM. For the same compound, the GI50 [5] was 1.66 µM, the TGI [5] was 3.52 µM and the GI50 [6] was 2.35 µM. The TGI [6] was over 100 µM, the GI50 [7] was 3.1 µM and the TGI [7] was over 100 µM. The GI50 [8] was 7.46 µM, the TGI [8] was over 100 µM and the GI50 [9] was 1.35 µM. For the same compound, the TGI [9] was 2.92 µM, the GI50 [10] was 1.94 µM and the TGI [10] was 6.84 µM.
Compound Nc1ccc2c(c1)S(=O)(=O)c1cc(N)ccc1-2 has a TGI [1] of over 100 µM, a TGI [2] of over 100 µM and a TGI [3] of over 100 µM. For the same compound, the TGI [4] was over 100 µM, the TGI [5] was over 100 µM and the TGI [6] was over 100 µM. For the same compound, the TGI [7] was over 100 µM, the TGI [8] was over 100 µM and the TGI [9] was over 100 µM. It also gave a TGI [10] of over 100 µM.
Work on CCc1ncc(C(C)(O)c2ccccc2)n1Cc1ccccc1 (stereo unspecified) yielded a TGI [1] of over 100 µM, a TGI [2] of over 100 µM and a TGI [3] of over 100 µM. The TGI [4] was over 100 µM, the TGI [5] was over 100 µM and the TGI [6] was over 100 µM. The TGI [7] was 96.3 µM, the TGI [8] was over 100 µM and the TGI [9] was over 100 µM. It also gave a TGI [10] of over 100 µM.

— PubChem BioAssay (NCI)
